Results taken from ChEMBL document CHEMBL1201862, “PubChem BioAssay data set” (2004).
The source made the active and inactive calls.

How the values were obtained:
[1] = cytotoxicity toward DRD oncogenic fibroblasts, dose response, cell-based, non-viral oncogenic, luminescence (AID 1934); assay type: functional; settings: Homo sapiens
BJ [2] = test: cytotoxicity toward BJ-TERT fibroblasts, dose response, cell-based, RAS-independent, luminescence (AID 1933); assay type: functional; settings: Homo sapiens
HT-1080 = test: cytotoxicity in HT1080 fibrosarcoma cells, cell-based, fluorescence readout (AID 620); assay type: functional; settings: Homo sapiens
[3] = HepG2 cell cytotoxicity, dose response, cytotoxicity control, plate reader, cherry-pick, antagonist series (AID 743416); assay type: functional, cell-based
[4] = LGR2 antagonists, dose response, cell-based, HEK293, CRE-luciferase reporter, cherry pick, set 2 (AID 743343); assay type: functional;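 note: transfected cells were stimulated with diluted bursicon conditioned medium after compound addition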
BJ [5] = test: cytotoxicity toward BJ-TERT-LT-ST fibroblasts, dose response, cell-based, RAS-independent, luminescence (AID 1935); assay type: functional; settings: Homo sapiens;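 note: BJ fibroblasts immortalized with TERT plus LT and ST oncogenes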
[6] = A549 cell cytotoxicity, dose response, cytotoxicity control, plate reader, cherry-pick, antagonist series (AID 743412); assay type: functional, cell-based
HEK293 = test: inhibitors of LMP1-driven NF-kB reporter, dose response, cell-based, HEK293, luciferase, cherry-pick (AID 588343); assay type: functional; settings: Homo sapiens
BJ [7] = test: cells; assay type: functional, cell-based; settings: Homo sapiens
[8] = HEK293 cell cytotoxicity, dose response, cytotoxicity control, plate reader, cherry-picked samples (AID 743446); assay type: functional, cell-based
[9] = MC4R antagonists, dose response, counter-screen for LGR2 antagonist project, cell-based, plate reader, cherry pick (AID 743444); assay type: functional;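 note: transfected HEK 293 cells stimulated with alpha-MSH peptide; potency of inhibitors of the alpha-MSH evoked signal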
[10] = biological target: T1, Oxysterols receptor LXR-beta (Homo sapiens, UniProt P55055); assay type: functional, cell-based;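 note: Cell-based luminescence dose-response assay of agonist activity at LXR, run as a confirmatory counterscreen to a daf-12 agonist screen; HEK293 cells with Gal4-LXR fusion and GAL4-driven luciferase reporter; agonist potency from rising luciferase signal of a Gal4-LXR reporter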
T1 sequence (P55055 whole entry): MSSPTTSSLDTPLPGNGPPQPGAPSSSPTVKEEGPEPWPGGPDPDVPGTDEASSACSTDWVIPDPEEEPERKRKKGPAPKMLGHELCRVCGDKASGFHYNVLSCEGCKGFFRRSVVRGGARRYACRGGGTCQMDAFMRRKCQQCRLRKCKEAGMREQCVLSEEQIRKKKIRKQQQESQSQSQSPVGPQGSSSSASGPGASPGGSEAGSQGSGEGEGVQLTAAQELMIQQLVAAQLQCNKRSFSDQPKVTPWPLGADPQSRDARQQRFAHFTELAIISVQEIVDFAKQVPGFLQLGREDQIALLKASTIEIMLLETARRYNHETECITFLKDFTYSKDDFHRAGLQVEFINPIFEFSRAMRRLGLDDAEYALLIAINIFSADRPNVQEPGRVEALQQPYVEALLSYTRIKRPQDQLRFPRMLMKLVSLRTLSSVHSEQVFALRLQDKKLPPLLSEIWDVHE

[11] = biological target: T2, Corticotropin-releasing factor receptor 2/Corticotropin-releasing factor-binding protein (Homo sapiens, UniProt P24387+Q13324); test: activators of CRF receptor 2 with binding protein – uHTS hits, confirmation (AID 602473); assay type: functional; settings: read-out: EC50_Mean
T2 sequence (Q13324 whole entry): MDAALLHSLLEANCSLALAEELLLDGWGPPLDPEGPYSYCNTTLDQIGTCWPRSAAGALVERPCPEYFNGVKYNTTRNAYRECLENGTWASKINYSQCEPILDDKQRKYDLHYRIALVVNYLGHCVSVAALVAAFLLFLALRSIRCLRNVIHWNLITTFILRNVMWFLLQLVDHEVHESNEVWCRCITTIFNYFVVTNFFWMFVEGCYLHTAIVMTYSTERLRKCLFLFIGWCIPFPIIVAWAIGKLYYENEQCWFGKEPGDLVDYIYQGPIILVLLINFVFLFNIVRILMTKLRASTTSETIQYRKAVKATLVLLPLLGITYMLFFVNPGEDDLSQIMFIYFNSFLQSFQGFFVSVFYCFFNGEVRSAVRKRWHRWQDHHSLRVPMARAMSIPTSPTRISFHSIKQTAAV
T2 sequence (P24387 whole entry): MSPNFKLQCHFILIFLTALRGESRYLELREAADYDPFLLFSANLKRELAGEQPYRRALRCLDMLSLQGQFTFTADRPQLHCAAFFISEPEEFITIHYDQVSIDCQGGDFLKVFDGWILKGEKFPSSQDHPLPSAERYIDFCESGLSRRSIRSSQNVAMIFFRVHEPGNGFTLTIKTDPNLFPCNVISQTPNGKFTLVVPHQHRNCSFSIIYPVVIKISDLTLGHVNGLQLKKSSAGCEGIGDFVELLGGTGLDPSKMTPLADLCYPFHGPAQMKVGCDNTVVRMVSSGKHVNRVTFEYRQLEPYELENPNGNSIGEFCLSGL

[12] = biological target: T3, Tyrosine-protein phosphatase non-receptor type 7 (Homo sapiens, UniProt P35236); test: inhibitors of human HePTP phosphatase, […], biochemical, absorbance, leukemia target (AID 521); assay type: functional
T3 sequence (P35236 whole entry): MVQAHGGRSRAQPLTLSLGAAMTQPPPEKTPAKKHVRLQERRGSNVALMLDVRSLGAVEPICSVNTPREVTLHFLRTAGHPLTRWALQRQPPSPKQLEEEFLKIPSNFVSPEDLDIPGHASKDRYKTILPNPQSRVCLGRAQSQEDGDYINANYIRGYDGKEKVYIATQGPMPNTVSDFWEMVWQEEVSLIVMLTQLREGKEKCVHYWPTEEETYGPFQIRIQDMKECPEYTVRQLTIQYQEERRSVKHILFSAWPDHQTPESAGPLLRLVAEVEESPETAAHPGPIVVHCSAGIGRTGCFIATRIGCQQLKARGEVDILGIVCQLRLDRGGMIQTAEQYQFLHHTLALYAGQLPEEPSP

Ephrin type-A receptor 4 = Ephrin type-A receptor 4 (Mus musculus, UniProt Q03137); test: inhibitors of EphA4 binding to KYL peptide, primary screen, biochemical, colorimetric, mouse EphA4 (AID 689); assay type: functional
[13] = biological target: Induced myeloid leukemia cell differentiation protein Mcl-1 (Homo sapiens, UniProt Q07820); assay type: functional
Estrogen receptor beta [14] = biological target: T4, Estrogen receptor beta (Homo sapiens, UniProt Q92731);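 note: recombinant ER-beta bound to coactivator SRC1 peptide in presence of estradiol agonist; inhibitors block coactivator peptide binding and lower the FRET signal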
[15] = C. albicans growth with fluconazole, confirmation, fluorescence, retest (AID 2467); assay type: functional, cell-based
Estrogen receptor beta [16] = biological target: T4, Estrogen receptor beta; test: ERβ–SRC-3 coactivator interaction inhibitors, confirmation, orthogonal assay, biochemical, ELISA, streptavidin-HRP readout (AID 1060)
[17] = NIH-3T3 fibroblast cytotoxicity, dose response, cytotoxicity control, cell-based, fluorescence, Alamar Blue, secondary assay (AID 2327); assay type: functional;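 note: NIH-3T3 mouse fibroblasts cultured with fluconazole at 8 µg/mL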
[18] = cytotoxicity in HPDE-C7 cells, cell-based, fluorescence, HTS (AID 430); assay type: functional; settings: Homo sapiens
[19] = cytotoxicity in KRAS-transformed pancreatic duct cells, primary screen, cell-based, fluorescence, HTS (AID 431); assay type: functional; settings: Homo sapiens;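 note: cell line used: HPDE-C7K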
[20] = biological target: T5, Heat shock factor protein 1 (Mus musculus, UniProt P38532); test: HSF1 potentiators in luciferase reporter cells, confirmation, cell-based, NIH3T3, luminescence, dose retest (AID 435004); assay type: functional;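 note: stress induced by proteasome inhibitor MG132 added 30 min after compound; luciferase reporter driven by HSF1 response element in NIH3T3 cells; actives raise luminescence as potentiators of the MG132 stress response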
T5 sequence (P38532 whole entry): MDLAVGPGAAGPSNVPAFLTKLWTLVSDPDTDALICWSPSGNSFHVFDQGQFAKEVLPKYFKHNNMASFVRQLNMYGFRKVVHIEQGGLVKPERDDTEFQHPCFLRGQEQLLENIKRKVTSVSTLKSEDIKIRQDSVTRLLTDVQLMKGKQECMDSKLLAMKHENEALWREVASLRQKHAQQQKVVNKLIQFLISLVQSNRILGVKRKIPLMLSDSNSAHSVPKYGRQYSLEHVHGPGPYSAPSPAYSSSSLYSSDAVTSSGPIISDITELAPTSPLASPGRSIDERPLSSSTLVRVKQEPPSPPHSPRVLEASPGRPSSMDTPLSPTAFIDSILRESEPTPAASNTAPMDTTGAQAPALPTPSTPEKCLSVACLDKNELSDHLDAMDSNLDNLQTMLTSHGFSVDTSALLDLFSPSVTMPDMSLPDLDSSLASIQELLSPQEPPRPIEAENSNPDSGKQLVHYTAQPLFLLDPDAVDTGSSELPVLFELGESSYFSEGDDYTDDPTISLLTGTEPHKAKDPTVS

[21] = biological target: Mitogen-activated protein kinase 10 (Homo sapiens, UniProt P53779); test: Dose response biochemical screening assay for inhibitors of c-Jun N-Terminal Kinase 3 (JNK3). [Related pubchem assays: 746 ]
[22] = P. falciparum late gametocyte killing, dose response, luminescence (AID 1117278); assay type: functional, cell-based;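 note: gametocytes exposed to compound for 24 hours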
[23] = Jurkat T cell cytotoxicity, dose response, cytotoxicity control for P. falciparum gametocyte viability project, luminescence (AID 1117277); assay type: functional, cell-based;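 note: potency reflects loss of cellular ATP meaning fewer viable cells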
[24] = biological target: T6, Aryl hydrocarbon receptor (Homo sapiens, UniProt P35869); test: Luminescence-based cell-based high throughput dose response assay for activators of the Aryl Hydrocarbon Receptor (AHR). [Related pubchem assays: 2796 (Primary screen (AHR activators in singlicate)), 2845 (Confirmation screen (AHR activators in triplicate)), 434939 (Counterscreen (PXR activators in triplicate)), 2804 (Summary (AHR activators))]; assay type: ADME
T6 sequence (P35869 whole entry): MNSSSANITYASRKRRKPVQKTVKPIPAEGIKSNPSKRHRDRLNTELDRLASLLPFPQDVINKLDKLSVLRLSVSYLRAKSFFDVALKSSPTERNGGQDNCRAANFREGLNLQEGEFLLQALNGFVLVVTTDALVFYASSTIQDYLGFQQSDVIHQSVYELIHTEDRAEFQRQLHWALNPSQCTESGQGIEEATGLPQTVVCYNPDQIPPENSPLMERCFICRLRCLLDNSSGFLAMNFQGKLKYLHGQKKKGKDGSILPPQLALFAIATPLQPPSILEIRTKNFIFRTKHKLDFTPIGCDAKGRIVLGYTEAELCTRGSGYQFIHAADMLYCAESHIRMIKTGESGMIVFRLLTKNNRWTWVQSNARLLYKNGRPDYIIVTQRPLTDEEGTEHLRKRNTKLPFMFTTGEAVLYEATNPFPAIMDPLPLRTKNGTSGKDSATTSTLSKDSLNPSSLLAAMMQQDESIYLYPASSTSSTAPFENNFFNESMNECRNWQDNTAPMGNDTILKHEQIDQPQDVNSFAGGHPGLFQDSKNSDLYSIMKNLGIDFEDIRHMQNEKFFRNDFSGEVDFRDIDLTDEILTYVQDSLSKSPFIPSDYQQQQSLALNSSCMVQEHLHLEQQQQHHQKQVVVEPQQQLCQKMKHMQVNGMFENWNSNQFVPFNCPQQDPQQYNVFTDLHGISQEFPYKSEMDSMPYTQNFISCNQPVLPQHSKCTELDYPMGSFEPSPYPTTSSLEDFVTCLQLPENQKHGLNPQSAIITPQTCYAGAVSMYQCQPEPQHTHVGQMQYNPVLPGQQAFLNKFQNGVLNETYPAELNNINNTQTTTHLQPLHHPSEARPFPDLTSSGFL

T4 sequence (Q92731 whole entry): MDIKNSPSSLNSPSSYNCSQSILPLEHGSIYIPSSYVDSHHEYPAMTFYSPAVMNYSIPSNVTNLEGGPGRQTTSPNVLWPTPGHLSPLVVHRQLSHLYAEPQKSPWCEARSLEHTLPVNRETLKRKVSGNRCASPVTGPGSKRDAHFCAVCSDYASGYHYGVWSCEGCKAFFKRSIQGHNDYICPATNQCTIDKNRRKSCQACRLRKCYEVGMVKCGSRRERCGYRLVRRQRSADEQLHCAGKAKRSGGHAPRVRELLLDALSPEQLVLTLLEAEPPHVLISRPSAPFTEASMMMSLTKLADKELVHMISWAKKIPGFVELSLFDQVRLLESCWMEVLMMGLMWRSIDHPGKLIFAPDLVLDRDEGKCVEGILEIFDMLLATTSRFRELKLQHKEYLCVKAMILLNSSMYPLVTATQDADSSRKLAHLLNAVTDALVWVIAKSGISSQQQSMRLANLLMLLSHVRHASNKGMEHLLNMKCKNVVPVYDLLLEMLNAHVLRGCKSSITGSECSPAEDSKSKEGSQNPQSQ
Chain of Mitogen-activated protein kinase 10 (P53779 whole entry): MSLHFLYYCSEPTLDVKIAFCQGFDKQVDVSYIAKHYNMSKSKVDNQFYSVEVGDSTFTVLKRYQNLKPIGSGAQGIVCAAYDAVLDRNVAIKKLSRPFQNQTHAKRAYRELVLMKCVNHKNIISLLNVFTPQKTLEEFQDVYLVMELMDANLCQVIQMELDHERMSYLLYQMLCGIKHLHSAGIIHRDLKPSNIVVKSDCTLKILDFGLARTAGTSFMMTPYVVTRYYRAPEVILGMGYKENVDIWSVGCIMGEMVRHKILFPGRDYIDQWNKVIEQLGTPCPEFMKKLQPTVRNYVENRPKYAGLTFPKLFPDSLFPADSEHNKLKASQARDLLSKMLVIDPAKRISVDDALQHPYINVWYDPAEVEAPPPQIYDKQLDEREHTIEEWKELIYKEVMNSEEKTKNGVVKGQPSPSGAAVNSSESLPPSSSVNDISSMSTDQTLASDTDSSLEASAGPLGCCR
Chain of Induced myeloid leukemia cell differentiation protein Mcl-1 (Q07820 whole entry): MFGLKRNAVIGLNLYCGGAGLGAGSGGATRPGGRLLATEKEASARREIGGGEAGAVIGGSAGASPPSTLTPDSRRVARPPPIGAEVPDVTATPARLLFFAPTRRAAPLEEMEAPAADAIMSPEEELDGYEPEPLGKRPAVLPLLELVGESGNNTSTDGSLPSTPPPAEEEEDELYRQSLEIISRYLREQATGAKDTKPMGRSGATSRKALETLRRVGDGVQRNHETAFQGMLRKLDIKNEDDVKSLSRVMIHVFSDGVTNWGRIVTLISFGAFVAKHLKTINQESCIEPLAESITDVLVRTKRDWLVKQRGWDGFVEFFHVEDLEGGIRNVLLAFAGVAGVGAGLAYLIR
Chain of Ephrin type-A receptor 4 (Q03137 whole entry): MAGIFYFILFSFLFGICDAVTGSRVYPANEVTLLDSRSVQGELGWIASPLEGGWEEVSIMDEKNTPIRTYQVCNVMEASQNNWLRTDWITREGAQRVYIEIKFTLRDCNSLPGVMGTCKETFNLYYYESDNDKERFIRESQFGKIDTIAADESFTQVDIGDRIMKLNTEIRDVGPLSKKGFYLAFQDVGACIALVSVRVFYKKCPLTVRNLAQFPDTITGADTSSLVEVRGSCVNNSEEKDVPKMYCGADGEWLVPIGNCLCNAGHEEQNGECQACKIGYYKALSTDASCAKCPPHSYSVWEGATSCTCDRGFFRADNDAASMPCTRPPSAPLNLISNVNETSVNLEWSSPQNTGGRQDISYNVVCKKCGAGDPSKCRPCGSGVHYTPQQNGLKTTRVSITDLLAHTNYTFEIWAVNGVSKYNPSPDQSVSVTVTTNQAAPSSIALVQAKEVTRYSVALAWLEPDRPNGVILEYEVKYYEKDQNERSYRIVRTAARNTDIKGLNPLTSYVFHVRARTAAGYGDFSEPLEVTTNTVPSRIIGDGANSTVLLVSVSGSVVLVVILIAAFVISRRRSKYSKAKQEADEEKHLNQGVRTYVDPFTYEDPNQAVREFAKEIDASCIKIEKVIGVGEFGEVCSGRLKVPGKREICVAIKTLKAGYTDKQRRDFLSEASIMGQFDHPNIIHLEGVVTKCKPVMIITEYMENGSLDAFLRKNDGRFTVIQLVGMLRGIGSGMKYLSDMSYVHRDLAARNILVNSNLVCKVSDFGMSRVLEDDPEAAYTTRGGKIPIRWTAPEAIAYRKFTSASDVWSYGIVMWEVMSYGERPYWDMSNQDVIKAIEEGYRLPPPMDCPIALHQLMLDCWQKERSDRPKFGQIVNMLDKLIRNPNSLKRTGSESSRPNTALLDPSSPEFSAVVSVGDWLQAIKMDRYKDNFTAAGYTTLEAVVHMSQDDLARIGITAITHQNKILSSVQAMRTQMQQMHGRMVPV

## COc1ccccc1-c1nc(-c2ccccn2)no1
[1]
  EC50: 7.2 µM (active)
BJ [2]
  EC50: 9.58 µM (active)
HT-1080
  EC50: > 50 µM (not active)
[3]
  AC50: 19.4 µM (active)
[4]
  AC50: 3.35 µM (active)
BJ [5]
  EC50: > 150 µM (inconclusive)
[6]
  AC50: 10.4 µM (active)
HEK293
  AC50: 1.26 µM (active)
BJ [7]
  EC50: 10.4 µM (active)
[8]
  AC50: 10.7 µM (active)
[9]
  AC50: 2.05 µM (active)
cells
  EC50: > 67.5 µM (inactive)
[10]
  EC50: > 67.5 µM (inactive)

## CN1CCc2c(sc3c2C(=O)NC(c2cccs2)N3)C1 (stereo not given)
[11]
  EC50: > 53 µM (inactive)
[12]
  IC50: > 100 µM (not active)

## COc1cc(C(Nc2ccccn2)c2ccc3ccc(C)nc3c2O)cc(OC)c1O (stereo not given)
Ephrin type-A receptor 4
  IC50: 2.02 µM (active)
[13]
  IC50: 0.786 µM (active)
Estrogen receptor beta [14]
  IC50: 3.13 µM (active)
[15]
  EC50: > 38 µM (not active)
Estrogen receptor beta [16]
  IC50: > 109 µM (not active)
[17]
  EC50: 5.42 µM (inconclusive)
[18]
  EC50: 4.68 µM (active)
[19]
  EC50: 4.83 µM (active)
[20]
  EC50: 4.22 µM (active)

## O=C(CNC(=O)c1ccc(Br)o1)Nc1cccc(-c2cnc3ccccc3n2)c1
[21]
  IC50: 41.2 µM (not active)

## Cc1ccc(-c2csc3ncnc(S)c23)cc1
[22]
  IC50: > 109 µM (inactive)
[23]
  IC50: 76.2 µM (inactive)

## CCC(C(=O)NCc1cccnc1)c1ccccc1 (stereo not given)
[22]
  IC50: > 109 µM (inactive)
[23]
  IC50: > 83.2 µM (inactive)

## Cc1ccccc1-c1nc(-c2cccnc2)no1
[24]
  EC50: 1.74 µM (active)
